# From US20040063662A1, “Selenophene anti-tumor agents” (priority 1996, published 2004)
# Legend:
# CCRF-CEM = experiment: NCI human tumor cell panel: CCRF-CEM (Leukemia); type: cell-based
# HL-60(TB) = experiment: NCI human tumor cell panel: HL-60(TB) (Leukemia); type: cell-based
# MOLT-4 = experiment: NCI human tumor cell panel: MOLT-4 (Leukemia); type: cell-based
# HOP-62 = experiment: NCI human tumor cell panel: HOP-62 (Non-Small Cell Lung Cancer); type: cell-based
# NCI-H23 = experiment: NCI human tumor cell panel: NCI-H23 (Non-Small Cell Lung Cancer); type: cell-based; conditions: NCI-H23, read-out: Log10 GI50 (converted)
# COLO 205 = experiment: NCI human tumor cell panel: COLO 205 (Colon Cancer); type: cell-based
# HCC-2998 = experiment: NCI human tumor cell panel: HCC-2998 (Colon Cancer); type: cell-based
# HCT-116 = experiment: NCI human tumor cell panel: HCT-116 (Colon Cancer); type: cell-based
# HCT-15 = experiment: NCI human tumor cell panel: HCT-15 (Colon Cancer); type: cell-based
# HT29 = experiment: NCI human tumor cell panel: HT29 (Colon Cancer); type: cell-based
# SW-620 = experiment: NCI human tumor cell panel: SW-620 (Colon Cancer); type: cell-based
# SF-268 = experiment: NCI human tumor cell panel: SF-268 (CNS Cancer); type: cell-based
# SNB-75 = experiment: NCI human tumor cell panel: SNB-75 (CNS Cancer); type: cell-based
# U251 = experiment: NCI human tumor cell panel: U251 (CNS Cancer); type: cell-based
# M14 = experiment: NCI human tumor cell panel: M14 (Melanoma); type: cell-based
# SK-MEL-2 = experiment: NCI human tumor cell panel: SK-MEL-2 (Melanoma); type: cell-based
# SK-MEL-5 = experiment: NCI human tumor cell panel: SK-MEL-5 (Melanoma); type: cell-based
# UACC-62 = experiment: NCI human tumor cell panel: UACC-62 (Melanoma); type: cell-based
# CAKI-1 = experiment: NCI human tumor cell panel: CAKI-1 (Renal Cancer); type: cell-based
# RXF-393 = experiment: NCI human tumor cell panel: RXF-393 (Renal Cancer); type: cell-based
# DU-145 = experiment: NCI human tumor cell panel: DU-145 (Prostate Cancer); type: cell-based
# MCF7 = experiment: NCI human tumor cell panel: MCF7 (Breast Cancer); type: cell-based
# MDA-MB-231/ATCC = experiment: NCI human tumor cell panel: MDA-MB-231/ATCC (Breast Cancer); type: cell-based; conditions: Homo sapiens, MDA-MB-231, MDA-MB-231/ATCC
# MDA-N = experiment: NCI human tumor cell panel: MDA-N (Breast Cancer); type: cell-based
# T-47D = experiment: NCI human tumor cell panel: T-47D (Breast Cancer); type: cell-based; conditions: T47D
# [1] = test system: panel of sixty different human tumor cell lines; experiment: NCI human tumor cell panel: whole panel (mean graph summary)
# [2] = read-out: Log10 GI50 (converted)
# [3] = read-out: Log10 TGI (converted)
compound,measurement,setting,value
OCc1ccc(-c2ccc(-c3ccc[se]3)[se]2)[se]1 [compound 675246],GI50,CCRF-CEM; [2],3.16 µM
same,IC (TGI),CCRF-CEM; [3],12.3 µM
same,GI50,HL-60(TB); [2],5.75 µM
same,IC (TGI),HL-60(TB); read-out: Log10 TGI,> 100 µM
same,GI50,"MOLT-4; MOLT-4, read-out: Log10 GI50 (converted)",3.24 µM
same,IC (TGI),"MOLT-4; MOLT-4, read-out: Log10 TGI (converted)",12 µM
same,GI50,"HOP-62; HOP-62, read-out: Log10 GI50 (converted)",7.24 µM
same,IC (TGI),"HOP-62; HOP-62, read-out: Log10 TGI (converted)",20.4 µM
same,GI50,NCI-H23,13.2 µM
same,GI50,"COLO 205; COLO 205, read-out: Log10 GI50 (converted)",1 µM
same,IC (TGI),"COLO 205; COLO 205, read-out: Log10 TGI (converted)",4.07 µM
same,GI50,"HCC-2998; HCC-2998, read-out: Log10 GI50 (converted)",1.23 µM
same,IC (TGI),"HCC-2998; HCC-2998, read-out: Log10 TGI (converted)",11.7 µM
same,GI50,"HCT-116; HCT-116, read-out: Log10 GI50 (converted)",0.0646 µM
same,IC (TGI),"HCT-116; HCT-116, read-out: Log10 TGI (converted)",10.7 µM
same,GI50,"HCT-15; HCT-15, read-out: Log10 GI50 (converted)",4.27 µM
same,IC (TGI),"HCT-15; HCT-15, read-out: Log10 TGI (converted)",17.8 µM
same,GI50,"HT29; HT-29, HT29, read-out: Log10 GI50 (converted)",0.851 µM
same,IC (TGI),"HT29; HT-29, HT29, read-out: Log10 TGI (converted)",10.7 µM
same,GI50,"SW-620; SW-620, read-out: Log10 GI50 (converted)",0.417 µM
same,IC (TGI),"SW-620; SW-620, read-out: Log10 TGI (converted)",10.2 µM
same,GI50,"SF-268; SF-268, read-out: Log10 GI50 (converted)",4.07 µM
same,IC (TGI),"SF-268; SF-268, read-out: Log10 TGI (converted)",> 100 µM
same,GI50,"SNB-75; SNB-75, read-out: Log10 GI50 (converted)",3.89 µM
same,IC (TGI),"SNB-75; SNB-75, read-out: Log10 TGI (converted)",> 100 µM
same,GI50,"U251; U-251, U251, read-out: Log10 GI50 (converted)",0.0708 µM
same,IC (TGI),"U251; U-251, U251, read-out: Log10 TGI (converted)",12.3 µM
same,GI50,"M14; M14, read-out: Log10 GI50 (converted)",8.71 µM
same,IC (TGI),"M14; M14, read-out: Log10 TGI (converted)",24 µM
same,GI50,"SK-MEL-2; SK-MEL-2, read-out: Log10 GI50 (converted)",9.12 µM
same,IC (TGI),"SK-MEL-2; SK-MEL-2, read-out: Log10 TGI (converted)",25.7 µM
same,GI50,"SK-MEL-5; SK-MEL-5, read-out: Log10 GI50 (converted)",2.63 µM
same,IC (TGI),"SK-MEL-5; SK-MEL-5, read-out: Log10 TGI (converted)",8.91 µM
same,GI50,"UACC-62; UACC-62, read-out: Log10 GI50 (converted)",0.0102 µM
same,IC (TGI),"UACC-62; UACC-62, read-out: Log10 TGI (converted)",11.2 µM
same,GI50,"CAKI-1; CAKI-1, read-out: Log10 GI50 (converted)",5.37 µM
same,IC (TGI),"CAKI-1; CAKI-1, read-out: Log10 TGI (converted)",18.6 µM
same,GI50,"RXF-393; RXF-393, read-out: Log10 GI50 (converted)",0.0209 µM
same,IC (TGI),"RXF-393; RXF-393, read-out: Log10 TGI (converted)",0.0912 µM
same,GI50,"DU-145; DU-145, read-out: Log10 GI50 (converted)",10.2 µM
same,IC (TGI),"DU-145; DU-145, read-out: Log10 TGI (converted)",21.9 µM
same,GI50,"MCF7; MCF7, read-out: Log10 GI50 (converted)",0.145 µM
same,IC (TGI),"MCF7; MCF7, read-out: Log10 TGI (converted)",3.8 µM
same,GI50,MDA-MB-231/ATCC; [2],4.37 µM
same,IC (TGI),MDA-MB-231/ATCC; [3],33.9 µM
same,GI50,MDA-N; [2],9.77 µM
same,IC (TGI),MDA-N; [3],56.2 µM
same,GI50,T-47D; [2],3.8 µM
same,IC (TGI),T-47D; [3],15.1 µM
same,GI50,"[1]; Homo sapiens, read-out: Log10 GI50, MG_MID, mean over the panel (converted)",1.66 µM
same,CC50,"[1]; Homo sapiens, read-out: Log10 LC50, MG_MID, mean over the panel (converted)",51.3 µM
same,"Log10 TGI, MG_MID",[1]; mean over the panel,−4.91
same,"Log10 TGI, Delta",[1]; whole panel,2.14
same,"Log10 TGI, Range",[1]; whole panel,3.04
